Experimental findings from patent US20250059171A1 (Hoffmann-La Roche Inc., priority 2021, published 2025) are described below.

Read-outs that look alike come from different tables or passages of the source.

Assay [1] addresses HCoV-229E 3CLpro (Human coronavirus 229E, UniProt P0C6X1). Briefly: HCoV-229E 3CLpro inhibition assay (FRET). It counts as biochemical.
The target of assay [2] is MERS-CoV 3CLpro (Middle East respiratory syndrome-related coronavirus, UniProt K9N7C7). Briefly: biochemical.
The target in assay [3] is SARS-CoV 3CLpro (Severe acute respiratory syndrome coronavirus, UniProt P0C6X7). Kind of assay: biochemical.
Assay [4] concerns the target SARS-CoV-2 3CLpro (Severe acute respiratory syndrome coronavirus 2, UniProt P0DTD1). Kind of assay: biochemical.

MERS-CoV 3CLpro, sequence (K9N7C7 3248-3553): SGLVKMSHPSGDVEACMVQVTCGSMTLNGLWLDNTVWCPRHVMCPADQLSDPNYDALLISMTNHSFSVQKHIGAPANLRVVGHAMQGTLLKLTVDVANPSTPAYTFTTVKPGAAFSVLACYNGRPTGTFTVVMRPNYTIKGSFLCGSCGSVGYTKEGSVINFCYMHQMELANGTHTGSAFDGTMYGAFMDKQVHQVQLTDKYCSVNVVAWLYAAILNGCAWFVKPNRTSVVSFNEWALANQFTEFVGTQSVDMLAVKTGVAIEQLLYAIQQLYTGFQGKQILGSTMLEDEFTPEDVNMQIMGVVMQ
HCoV-229E 3CLpro, sequence (P0C6X1 2966-3267): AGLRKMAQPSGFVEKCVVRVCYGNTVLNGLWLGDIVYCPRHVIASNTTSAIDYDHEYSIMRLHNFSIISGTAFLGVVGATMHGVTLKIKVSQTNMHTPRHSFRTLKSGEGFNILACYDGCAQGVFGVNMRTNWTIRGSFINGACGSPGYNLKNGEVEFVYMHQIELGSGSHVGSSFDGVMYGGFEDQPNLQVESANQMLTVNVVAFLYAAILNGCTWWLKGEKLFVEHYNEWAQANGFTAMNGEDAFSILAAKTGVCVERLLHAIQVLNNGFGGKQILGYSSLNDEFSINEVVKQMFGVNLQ

By IC50 is commonly meant the point on the concentration scale where inhibition reaches its midpoint. As to `CCC(CC)[C@H](NC(=O)C1CC1)C(=O)N1C[C@@H]2CCC[C@@H]2[C@H]1C(=O)NN(C[C@@H]1CCNC1=O)C(=O)[C@H](F)Cl` [Example 135, N-[(1S)-1-[(3S,3aS,6aR)-3-[[[(2R)-2-chloro-2-fluoro-acetyl]-[[(3S)-2-oxopyrrolidin-3-yl]methyl]amino]carbamoyl]-3,3a,4,5,6,6a-hexahydro-1H-cyclopenta[c]pyrrole-2-carbonyl]-2-ethyl-butyl]cyclopropanecarboxamide], the IC50 in assay [1] was 39 nM; in assay [2] it was 131 nM; in assay [3] it was 15 nM; in assay [4], 11 nM.
The matching figures for `CCC(CC)[C@H](NC(=O)C(F)F)C(=O)N1C[C@@H]2CCC[C@@H]2[C@H]1C(=O)NN(C[C@@H]1CCNC1=O)C(=O)[C@H](F)Cl` [Example 136, N-[(1S)-1-[(3S,3aS,6aR)-3-[[[(2R)-2-chloro-2-fluoro-acetyl]-[[(3S)-2-oxopyrrolidin-3-yl]methyl]amino]carbamoyl]-3,3a,4,5,6,6a-hexahydro-1H-cyclopenta[c]pyrrole-2-carbonyl]-2-ethyl-butyl]-2,2-difluoro-acetamide]: 55 nM, 74 nM, 15 nM and 16 nM.
For the compound `CCC(CC)[C@H](NC(=O)C1(F)CC1)C(=O)N1CC(C)(C)C[C@H]1C(=O)NN(C[C@@H]1CCNC1=O)C(=O)[C@H](F)Cl` [Example 138, N-[(1S)-1-[(2S)-2-[[[(2R)-2-chloro-2-fluoro-acetyl]-[[(3S)-2-oxopyrrolidin-3-yl]methyl]amino]carbamoyl]-4,4-dimethyl-pyrrolidine-1-carbonyl]-2-ethyl-butyl]-1-fluoro-cyclopropanecarboxamide], the IC50 came out at 54 nM in assay [1], 283 nM in assay [2], 25 nM in assay [3] and 16 nM in assay [4].
Taken in the same sequence, the figures for `CCC(CC)[C@H](NC(=O)C(F)F)C(=O)N1CC(C)(C)C[C@H]1C(=O)NN(C[C@@H]1CCNC1=O)C(=O)[C@H](F)Cl` [Example 139, N-[(1S)-1-[(2S)-2-[[[(2R)-2-chloro-2-fluoro-acetyl]-[[(3S)-2-oxopyrrolidin-3-yl]methyl]amino]carbamoyl]-4,4-dimethyl-pyrrolidine-1-carbonyl]-2-ethyl-butyl]-2,2-difluoro-acetamide] were 35 nM, 139 nM, 18 nM and 14 nM.
Taken in the same sequence, the figures for `CCC(C)(C)[C@H](NC(=O)[C@H](C)F)C(=O)N1C[C@H]2[C@@H]([C@H]1C(=O)NN(C[C@@H]1CCNC1=O)C(=O)[C@H](F)Cl)C2(C)C` [Example 140, (2S)—N-[(1S)-1-[(1R,2S,5S)-2-[[[(2R)-2-chloro-2-fluoro-acetyl]-[[(3S)-2-oxopyrrolidin-3-yl]methyl]amino]carbamoyl]-6,6-dimethyl-3-azabicyclo[3.1.0]hexane-3-carbonyl]-2,2-dimethyl-butyl]-2-fluoro-propanamide] were 31 nM, 94 nM, 25 nM and 11 nM.
The matching figures for `CCC(C)(C)[C@H](NC(=O)[C@@H](C)F)C(=O)N1C[C@H]2[C@@H]([C@H]1C(=O)NN(C[C@@H]1CCNC1=O)C(=O)[C@H](F)Cl)C2(C)C` [Example 141, (2R)—N-[(1S)-1-[(1R,2S,5S)-2-[[[(2R)-2-chloro-2-fluoro-acetyl]-[[(3S)-2-oxopyrrolidin-3-yl]methyl]amino]carbamoyl]-6,6-dimethyl-3-azabicyclo[3.1.0]hexane-3-carbonyl]-2,2-dimethyl-butyl]-2-fluoro-propanamide]: 35 nM, 117 nM, 15 nM and 10 nM.
As to `CCC(C)(C)[C@H](NC(=O)C1CC1)C(=O)N1C[C@H]2[C@@H]([C@H]1C(=O)NN(C[C@@H]1CCNC1=O)C(=O)[C@H](F)Cl)C2(C)C` [Example 142, N-[(1S)-1-[(1R,2S,5S)-2-[[[(2R)-2-chloro-2-fluoro-acetyl]-[[(3S)-2-oxopyrrolidin-3-yl]methyl]amino]carbamoyl]-6,6-dimethyl-3-azabicyclo[3.1.0]hexane-3-carbonyl]-2,2-dimethyl-butyl]cyclopropanecarboxamide], the IC50 in assay [1] is 31 nM; in assay [2] it was 83 nM; in assay [3], 13 nM; in assay [4] it was 10 nM.
Taken in the same sequence, the figures for `CCC(C)(C)[C@H](NC(=O)C1(F)CC1)C(=O)N1C[C@H]2[C@@H]([C@H]1C(=O)NN(C[C@@H]1CCNC1=O)C(=O)[C@H](F)Cl)C2(C)C` [Example 143, N-[(1S)-1-[(1R,2S,5S)-2-[[[(2R)-2-chloro-2-fluoro-acetyl]-[[(3S)-2-oxopyrrolidin-3-yl]methyl]amino]carbamoyl]-6,6-dimethyl-3-azabicyclo[3.1.0]hexane-3-carbonyl]-2,2-dimethyl-butyl]-1-fluoro-cyclopropanecarboxamide] were 28 nM, 86 nM, 13 nM and 8 nM.
The matching figures for `CCC(C)(C)[C@H](NC(=O)C(F)F)C(=O)N1C[C@H]2[C@@H]([C@H]1C(=O)NN(C[C@@H]1CCNC1=O)C(=O)[C@H](F)Cl)C2(C)C` [Example 144, N-[(1S)-1-[(1R,2S,5S)-2-[[[(2R)-2-chloro-2-fluoro-acetyl]-[[(3S)-2-oxopyrrolidin-3-yl]methyl]amino]carbamoyl]-6,6-dimethyl-3-azabicyclo[3.1.0]hexane-3-carbonyl]-2,2-dimethyl-butyl]-2,2-difluoro-acetamide]: 33 nM, 112 nM, 15 nM and 11 nM.
The matching figures for `CCC(C)(C)[C@H](NC(=O)C1(F)CC1)C(=O)N1C[C@H]2[C@@H]([C@H]1C(=O)NN(C[C@@H]1CCNC1=O)C(=O)[C@@H](F)Cl)C2(C)C` [Example 145, N-[(1S)-1-[(1R,2S,5S)-2-[[[(2S)-2-chloro-2-fluoro-acetyl]-[[(3S)-2-oxopyrrolidin-3-yl]methyl]amino]carbamoyl]-6,6-dimethyl-3-azabicyclo[3.1.0]hexane-3-carbonyl]-2,2-dimethyl-butyl]-1-fluoro-cyclopropanecarboxamide]: 77 nM, 152 nM, 27 nM and 18 nM.
With `CCC(C)(C)[C@H](NC(=O)C1CC1)C(=O)N1C[C@H]2[C@@H]([C@H]1C(=O)NN(C[C@@H]1CCNC1=O)C(=O)[C@@H](F)Cl)C2(C)C` [Example 147, N-[(1S)-1-[(1R,2S,5S)-2-[[[(2S)-2-chloro-2-fluoro-acetyl]-[[(3S)-2-oxopyrrolidin-3-yl]methyl]amino]carbamoyl]-6,6-dimethyl-3-azabicyclo[3.1.0]hexane-3-carbonyl]-2,2-dimethyl-butyl]cyclopropanecarboxamide], the IC50 in assay [1] worked out at 40 nM; in assay [2], 89 nM; in assay [3], 16 nM; in assay [4], 12 nM.
The matching figures for `CCC(C)(C)[C@H](NC(=O)C(F)F)C(=O)N1C[C@H]2[C@@H]([C@H]1C(=O)NN(C[C@@H]1CCNC1=O)C(=O)[C@@H](F)Cl)C2(C)C` [Example 148, N-[(1S)-1-[(1R,2S,5S)-2-[[[(2S)-2-chloro-2-fluoro-acetyl]-[[(3S)-2-oxopyrrolidin-3-yl]methyl]amino]carbamoyl]-6,6-dimethyl-3-azabicyclo[3.1.0]hexane-3-carbonyl]-2,2-dimethyl-butyl]-2,2-difluoro-acetamide]: 30 nM, 130 nM, 20 nM and 13 nM.
Take `CCC(C)(C)[C@H](NC(=O)C1(F)CC1)C(=O)N1C[C@@H]2CCC[C@@H]2[C@H]1C(=O)NN(C[C@@H]1CCNC1=O)C(=O)[C@H](F)Cl` [Example 149, N-[(1S)-1-[(3S,3aS,6aR)-3-[[[(2R)-2-chloro-2-fluoro-acetyl]-[[(3S)-2-oxopyrrolidin-3-yl]methyl]amino]carbamoyl]-3,3a,4,5,6,6a-hexahydro-1H-cyclopenta[c]pyrrole-2-carbonyl]-2,2-dimethyl-butyl]-1-fluoro-cyclopropanecarboxamide]: the 50% inhibitory concentration (IC50) in assay [1] stood at 45 nM; in assay [2] it was 139 nM; in assay [3] it was 15 nM; in assay [4] (read-out: IC50 in SARS-CoV-2 3CLpro assay), 6 nM.
On to `CCC(C)(C)[C@H](NC(=O)[C@@H]1CC1(F)F)C(=O)N1C[C@@H]2CCC[C@@H]2[C@H]1C(=O)NN(C[C@@H]1CCNC1=O)C(=O)[C@H](F)Cl` [Example 150, (1S)—N-[(1S)-1-[(3S,3aS,6aR)-3-[[[(2R)-2-chloro-2-fluoro-acetyl]-[[(3S)-2-oxopyrrolidin-3-yl]methyl]amino]carbamoyl]-3,3a,4,5,6,6a-hexahydro-1H-cyclopenta[c]pyrrole-2-carbonyl]-2,2-dimethyl-butyl]-2,2-difluoro-cyclopropanecarboxamide], for which the IC50 in assay [1] stood at 33 nM; in assay [2], 63 nM; in assay [3] it was 16 nM; in assay [4], 11 nM.
Consider `CCC(C)(C)[C@H](NC(=O)C(F)F)C(=O)N1C[C@@H]2CCC[C@@H]2[C@H]1C(=O)NN(C[C@@H]1CCNC1=O)C(=O)[C@H](F)Cl` [Example 151, N-[(1S)-1-[(3S,3aS,6aR)-3-[[[(2R)-2-chloro-2-fluoro-acetyl]-[[(3S)-2-oxopyrrolidin-3-yl]methyl]amino]carbamoyl]-3,3a,4,5,6,6a-hexahydro-1H-cyclopenta[c]pyrrole-2-carbonyl]-2,2-dimethyl-butyl]-2,2-difluoro-acetamide], for which the IC50 worked out at 31 nM in assay [1], 67 nM in assay [2], 14 nM in assay [3] and 13 nM in assay [4].
